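Protocol summary: plate cells (96-well), add compound at 5 concentrations, incubate 48 h, interpolate endpoints linearly. The concentration for full growth arrest is given as TGI.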
Key:
Assay in all cases: inhibition of tumour cell growth, NCI panel, 48 h
BT-549 breast = test system: BT-549 breast
MALME-3M melanoma = test system: MALME-3M melanoma
786-0 renal = test system: 786-0 renal
KM12 colon = test system: KM12 colon
UACC-62 melanoma = test system: UACC-62 melanoma
OVCAR-5 ovarian = test system: OVCAR-5 ovarian
M14 melanoma = test system: M14 melanoma
SR leukemia = test system: SR leukemia
CCRF-CEM leukemia = test system: CCRF-CEM leukemia
SNB-19 CNS = test system: SNB-19 CNS
A549 NSCLC = test system: A549 NSCLC
MDA-N = test system: MDA-N
HCC-2998 colon = test system: HCC-2998 colon
SK-MEL-5 melanoma = test system: SK-MEL-5 melanoma
COLO 205 colon = test system: COLO 205 colon
NCI-H460 lung = test system: NCI-H460 lung
MOLT-4 leukemia = test system: MOLT-4 leukemia
K-562 leukemia = test system: K-562 leukemia
T-47D breast = test system: T-47D breast
HCT-116 colon = test system: HCT-116 colon
HS 578T breast = test system: HS 578T breast
HOP-92 NSCLC = test system: HOP-92 NSCLC
ACHN renal = test system: ACHN renal
SK-MEL-2 melanoma = test system: SK-MEL-2 melanoma
SW-620 colon = test system: SW-620 colon
U251 CNS = test system: U251 CNS
RXF 393 renal = test system: RXF 393 renal
HL-60(TB) leukemia = test system: HL-60(TB) leukemia
A498 renal = test system: A498 renal
IGROV1 ovarian = test system: IGROV1 ovarian
TK-10 renal = test system: TK-10 renal
UACC-257 melanoma = test system: UACC-257 melanoma
OVCAR-8 ovarian = test system: OVCAR-8 ovarian
EKVX NSCLC = test system: EKVX NSCLC
SNB-75 CNS = test system: SNB-75 CNS
SN12C renal = test system: SN12C renal
PC-3 prostate = test system: PC-3 prostate
SK-MEL-28 melanoma = test system: SK-MEL-28 melanoma
HOP-62 NSCLC = test system: HOP-62 NSCLC
HCT-15 colon = test system: HCT-15 colon
MDA-MB-231 breast = test system: MDA-MB-231 breast
RPMI-8226 leukemia = test system: RPMI-8226 leukemia
NCI-H226 lung = test system: NCI-H226 lung
UO-31 renal = test system: UO-31 renal
MCF7 breast = test system: MCF7 breast
NCI-H23 lung = test system: NCI-H23 lung
HT29 colon = test system: HT29 colon
SF-539 CNS = test system: SF-539 CNS
MDA-MB-435 = test system: MDA-MB-435
OVCAR-4 ovarian = test system: OVCAR-4 ovarian
SK-OV-3 ovarian = test system: SK-OV-3 ovarian
SF-268 CNS = test system: SF-268 CNS
CAKI-1 renal = test system: CAKI-1 renal
SF-295 CNS = test system: SF-295 CNS
NCI/ADR-RES ovarian = test system: NCI/ADR-RES ovarian
OVCAR-3 ovarian = test system: OVCAR-3 ovarian
LOX IMVI melanoma = test system: LOX IMVI melanoma
DU-145 prostate = test system: DU-145 prostate

`CCOC(=O)c1c(N)sc2c1C(C(=O)OCC)CCC2` (stereo not drawn) showed a TGI (BT-549 breast) of over 100 µM, a TGI (MALME-3M melanoma) of over 100 µM and a TGI (786-0 renal) of over 100 µM. It also gave a TGI (KM12 colon) of over 100 µM, a TGI (UACC-62 melanoma) of over 100 µM and a TGI (OVCAR-5 ovarian) of over 100 µM. It also gave a TGI (M14 melanoma) of over 100 µM, a TGI (SR leukemia) of over 100 µM and a TGI (CCRF-CEM leukemia) of over 100 µM. It also gave a TGI (SNB-19 CNS) of over 100 µM, a TGI (A549 NSCLC) of over 100 µM and a TGI (MDA-N) of over 100 µM. It also gave a TGI (HCC-2998 colon) of over 100 µM, a TGI (SK-MEL-5 melanoma) of over 100 µM and a TGI (COLO 205 colon) of over 100 µM. It also gave a TGI (NCI-H460 lung) of over 100 µM, a TGI (MOLT-4 leukemia) of over 100 µM and a TGI (K-562 leukemia) of over 100 µM. It also gave a TGI (T-47D breast) of over 100 µM, a TGI (HCT-116 colon) of over 100 µM and a TGI (HS 578T breast) of over 100 µM. The TGI (HOP-92 NSCLC) was over 100 µM, the TGI (ACHN renal) was over 100 µM and the TGI (SK-MEL-2 melanoma) was over 100 µM. For the same compound, the TGI (SW-620 colon) was over 100 µM, the TGI (U251 CNS) was over 100 µM and the TGI (RXF 393 renal) was over 100 µM. The TGI (HL-60(TB) leukemia) was over 100 µM, the TGI (A498 renal) was over 100 µM and the TGI (IGROV1 ovarian) was over 100 µM. For the same compound, the TGI (TK-10 renal) was over 100 µM, the TGI (UACC-257 melanoma) was over 100 µM and the TGI (OVCAR-8 ovarian) was over 100 µM. For the same compound, the TGI (EKVX NSCLC) was over 100 µM, the TGI (SNB-75 CNS) was over 100 µM and the TGI (SN12C renal) was over 100 µM. The TGI (PC-3 prostate) was over 100 µM, the TGI (SK-MEL-28 melanoma) was over 100 µM and the TGI (HOP-62 NSCLC) was over 100 µM. It also gave a TGI (HCT-15 colon) of over 100 µM, a TGI (MDA-MB-231 breast) of over 100 µM and a TGI (RPMI-8226 leukemia) of over 100 µM. The TGI (NCI-H226 lung) was over 100 µM, the TGI (UO-31 renal) was over 100 µM and the TGI (MCF7 breast) was over 100 µM. It also gave a TGI (NCI-H23 lung) of over 100 µM and a TGI (HT29 colon) of over 100 µM.
`COC(=O)/C=c1/c2ccccc2n2c1c1ccccc1[n+]2C` was tested, and the TGI (BT-549 breast) was 14.7 µM, the TGI (MALME-3M melanoma) was 6.74 µM and the TGI (786-0 renal) was 14.9 µM. The TGI (SF-539 CNS) was 14 µM, the TGI (KM12 colon) was 9.47 µM and the TGI (UACC-62 melanoma) was 27.5 µM. The TGI (OVCAR-5 ovarian) was 17.6 µM, the TGI (MDA-MB-435) was 18.8 µM and the TGI (M14 melanoma) was 15.5 µM. The TGI (CCRF-CEM leukemia) was 51.1 µM, the TGI (SNB-19 CNS) was over 100 µM and the TGI (A549 NSCLC) was 24.1 µM. It also gave a TGI (MDA-N) of 11.1 µM, a TGI (OVCAR-4 ovarian) of 15.9 µM and a TGI (HCC-2998 colon) of 5.75 µM. For the same compound, the TGI (SK-MEL-5 melanoma) was 8.12 µM, the TGI (COLO 205 colon) was 2.51 µM and the TGI (SK-OV-3 ovarian) was 6.93 µM. The TGI (NCI-H460 lung) was 12.5 µM, the TGI (MOLT-4 leukemia) was over 100 µM and the TGI (K-562 leukemia) was over 100 µM. For the same compound, the TGI (T-47D breast) was over 100 µM, the TGI (HCT-116 colon) was 10.1 µM and the TGI (HS 578T breast) was over 100 µM. For the same compound, the TGI (ACHN renal) was 14.7 µM, the TGI (SK-MEL-2 melanoma) was 11.6 µM and the TGI (SW-620 colon) was 12.3 µM. For the same compound, the TGI (SF-268 CNS) was 22.8 µM, the TGI (U251 CNS) was 19.4 µM and the TGI (RXF 393 renal) was 17.4 µM. The TGI (HL-60(TB) leukemia) was 8.44 µM, the TGI (A498 renal) was 14.6 µM and the TGI (IGROV1 ovarian) was 20.9 µM. For the same compound, the TGI (TK-10 renal) was 9.93 µM, the TGI (UACC-257 melanoma) was 8.08 µM and the TGI (OVCAR-8 ovarian) was 15.7 µM. For the same compound, the TGI (EKVX NSCLC) was 7.79 µM, the TGI (CAKI-1 renal) was 70.9 µM and the TGI (SNB-75 CNS) was 8.44 µM. It also gave a TGI (SN12C renal) of 16.4 µM, a TGI (SF-295 CNS) of 5.63 µM and a TGI (NCI/ADR-RES ovarian) of over 100 µM. It also gave a TGI (OVCAR-3 ovarian) of 21.9 µM, a TGI (LOX IMVI melanoma) of 27.9 µM and a TGI (PC-3 prostate) of 9.79 µM. For the same compound, the TGI (SK-MEL-28 melanoma) was 19.9 µM, the TGI (HOP-62 NSCLC) was 15.3 µM and the TGI (HCT-15 colon) was 33.1 µM. It also gave a TGI (MDA-MB-231 breast) of 26 µM, a TGI (RPMI-8226 leukemia) of 9.67 µM and a TGI (NCI-H226 lung) of 21 µM. It also gave a TGI (UO-31 renal) of 20.4 µM, a TGI (MCF7 breast) of 26.5 µM and a TGI (NCI-H23 lung) of 11.4 µM. It also gave a TGI (HT29 colon) of 12.8 µM and a TGI (DU-145 prostate) of 36.3 µM.

— PubChem BioAssay (NCI)
